# Publication PMC10920890, “Biosensor and machine learning-aided engineering of an amaryllidaceae enzyme” (Nature Communications, 2024)
# Target: RamR (Salmonella enterica, UniProt Q8ZR43, K63T/L66M/C134D/S137G)
# Details: variant 4NB2.1 (4NB2); LB medium, 37 °C; whole-cell biosensor
# Sequence of RamR (Q8ZR43 whole entry K63T/L66M/C134D/S137G): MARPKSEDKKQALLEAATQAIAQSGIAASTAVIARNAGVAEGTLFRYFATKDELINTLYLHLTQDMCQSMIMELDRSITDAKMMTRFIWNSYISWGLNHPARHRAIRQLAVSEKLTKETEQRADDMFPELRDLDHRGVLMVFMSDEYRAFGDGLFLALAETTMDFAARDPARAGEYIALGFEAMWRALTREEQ
smiles,measurement,value
COc1ccc(CNCCc2ccc(O)cc2)cc1O [4′-O-methylnorbelladine],EC50,20 µM
